Here are results for five compounds from publication PMC8401404 (Molecules, 2021).

Read-outs that look alike come from different tables or passages of the source.

Data set [1] concerns NCI-H358. The data set is described as follows: Cytotoxicity (viability) assay, 3D hanging drop cell culture. The note with it: Homo sapiens, NCI-H358, 72 h, read-out: Cytotoxicity Assay IC50 ± SD; NCI-H358 3D. Here is the method:
(§1) MTS assay gives us information about the number of living cells, in this case, metabolically active cells, whereas the BrdU proliferation assay gives a measure of the cell population in active division phase. Both assays were performed in 2D and 3D assay formats. For the 2D cell assay format, we used classic two-dimensional in vitro assays and as a 3D assay we used a hanging drop proliferation cell assay as previously described. We explored the activity of compounds on three human lung cancer cell lines, A549, HCC827 and NCI-H358. The compound activity was also tested on human lung fibroblast cell line MRC-5. A two-dimensional in vitro viability assay was performed on the MRC-5 cell line to see if tested compounds are cytotoxic on normal cell lines in low concentrations. […] 7.1.
(§2) Test compounds were synthesized by a research group at the Department of Organic Chemistry, Faculty of Chemical Engineering and Technology, University of Zagreb. […] Compounds were diluted 1:3. We transferred 500 nL (for 2D cell culture) or 400 nL (for 3D cell culture) of the compound from a mother plate to test plate by using Mosquito (TTP labtech). DMSO percentage in test concentrations was 0.5–1.0%. Starting concentration of the test compounds and standard compound doxorubicin was 50 µM (2D cell culture) or 100 µM (3D cell culture).
(§3) Cells were grown in 96-well Perfecta 3D hanging drop plates 5000 cell/well for 4 days until spheres were formed (and checked under the microscope). After sphere formation cells were treated with compounds followed by 72 h incubation. Cell viability assay was performed according to the manufacturer’s instructions, using CellTiter GLO 3D for 3D cell culture (Promega); cell incubation was 5 min on the shaker followed by 25 min incubation in the dark. Plates were read using PE EnVision luminescence.
(§4) Calculation of IC50 data, curves and QC analysis was performed by using Excel tools and GraphPadPrism software (La Jolla, CA, USA), v. […] QC criteria parameters (Z’, S:B, R2, HillSlope) were checked for every IC50 curve.

For data set [2], the system named is HCC827. The data set is described as above. The note with it: Homo sapiens, HCC827, 72 h, read-out: Cytotoxicity Assay IC50 ± SD; HCC827 3D. Here is the method:
as §1, §2, §3, §4

The test system of data set [3] is A549. The description is as above. The settings on record: Homo sapiens, A549, 72 h, read-out: Cytotoxicity Assay IC50 ± SD; A549 3D. Here is the method: as §1, §2, §3, §4
Data set [4] can be described thus: MTS cytotoxicity assay, 2D cell culture, normal lung fibroblasts. The settings on record: human. The protocol:
as §1, §2
(§5) Cells were grown in 96-well cell star polystyrene plates. We seeded 10,000 cells/well in wells 4 h prior to the treatment with different compounds concentrations and incubated for 72 h. A cell viability assay was performed according to the manufacturer’s instructions, using CellTiter 96 aqueous solution, MTS kit (Promega, Madison, WI, USA). After 0.5–2 h of cell incubation with MTS in 2D cell culture, the plates were read using PE EnVision absorbance at 490 nm.
as §4

Data set [5] deals with NCI-H358. The data set is described as follows: BrdU proliferation assay, 2D cell culture. The format is cell-based, human. The settings on record: Homo sapiens, NCI-H358, 2D, n = 2, read-out: Proliferation Assay IC50 ± SD. The protocol:
as §1, §2, §5
(§6) Proliferation assay was performed using Cell Proliferation ELISA, BrdU (Sigma, St. Louis, MO, USA). Briefly, 48 h hours after compound addition, 10 µM of BrdU was added to each well and incubated for the following 24 h. After incubation, a single cell suspension was made for 3D cell culture in the new 96-well plate. Plates were centrifuged and supernatants were removed from each plate (for 2D and 3D cell culture) followed by 60 min incubation at 60 °C. The rest of the proliferation assay was performed according to the manufacturer’s instructions.
as §4

Data set [6] concerns HCC827. Nature of the data set: BrdU proliferation assay, 2D cell culture. The format is cell-based, human. The note with it: Homo sapiens. Here is the method:
as §1, §2, §5, §6, §4

In data set [7] the test system is A549. Nature of the data set: BrdU proliferation assay, 2D cell culture. The format is cell-based, human. The note with it: Homo sapiens. Here is the method:
as §1, §2, §5, §6, §4

Data set [8] concerns NCI-H358. The data set is described as follows: MTS cytotoxicity assay, 2D cell culture. The note with it: Homo sapiens, NCI-H358, 72 h, read-out: Cytotoxicity Assay IC50 ± SD; NCI-H358 2D. The protocol:
as §1, §2, §5, §4
A general note: Formazan colour is commonly taken as a measure of viable cells.

Data set [9] deals with HCC827. The data set is described as follows: MTS cytotoxicity assay, 2D cell culture. The note with it: Homo sapiens, HCC827, 72 h, read-out: Cytotoxicity Assay IC50 ± SD; HCC827 2D. The protocol: as §1, §2, §5, §4
Data set [10] concerns A549. The data set is described as follows: MTS cytotoxicity assay, 2D cell culture. The note with it: Homo sapiens, A549, 72 h, read-out: Cytotoxicity Assay IC50 ± SD, A549 2D. Here is the method:
as §1, §2, §5, §4

The test system of data set [11] is NCI-H358. The data set is described as follows: BrdU proliferation assay, 3D hanging drop cell culture. The settings on record: Homo sapiens, NCI-H358, 3D, n = 2, read-out: Proliferation Assay IC50 ± SD. The format is cell-based, human. The protocol:
as §1, §2, §3, §6, §4

Data set [12] deals with HCC827. Described as above. The format is cell-based, human. The note with it: Homo sapiens. The protocol:
as §1, §2, §3, §6, §4

Data set [13] has as its system A549. The description is as above. The note with it: Homo sapiens. The format is cell-based, human. The protocol:
as §1, §2, §3, §6, §4

Data set [14] concerns S. cerevisiae ATCC 7752. Nature of the data set: Broth microdilution testing (CLSI). The format is cell-based, Saccharomyces cerevisiae. The note with it: Saccharomyces cerevisiae. Here is the method:
(§7) Broth microdilution testing was performed according to CLSI (Clinical Laboratory Standards Institute) guidelines. MIC (minimal inhibitory concentration) value was defined as the last tested concentration of compound at which there is no visible growth of bacteria. […] Clinical and Laboratory Standards Institute (CLSI) guidelines.
(In general: In broth dilution the organism is exposed to a series of concentrations in liquid medium.)

For data set [15], the system named is S. aureus ATCC 29213. Nature of the data set: Broth microdilution testing (CLSI). The format is cell-based, Staphylococcus aureus. The note with it: Staphylococcus aureus. Here is the method: as §7
In data set [16] the test system is E. coli ATCC 25922. The data set is described as follows: Broth microdilution testing (CLSI). The format is cell-based, Escherichia coli. The settings on record: Escherichia coli. The protocol: as §7
Setting [17] is: MRC-5 normal lung fibroblasts, 2D culture.
The mark [18] stands for this setting: HCC827, read-out: Proliferation Assay IC50 ± SD, HCC827 2D.
Where [19] appears, read: A549, 2D, BrdU, n = 2, read-out: Proliferation Assay IC50 ± SD.
Where [20] appears, read: HCC827, read-out: Proliferation Assay IC50 ± SD, HCC827 3D.
[21] abbreviates: A549, 3D, BrdU, n = 2, read-out: Proliferation Assay IC50 ± SD.
Setting [22] is: HCC827, 2D, BrdU, n = 2, read-out: Proliferation Assay IC50 ± SD.
Setting [23] is: HCC827, 3D, BrdU, n = 2, read-out: Proliferation Assay IC50 ± SD.
[24] abbreviates: A549, read-out: Proliferation Assay IC50 ± SD, A549 2D.
[25] abbreviates: A549, read-out: Proliferation Assay IC50 ± SD, A549 3D.

As to `COc1cc2c(Nc3ccc(Br)cc3F)ncnc2cc1OCC1CCN(C)CC1` [Vandetanib, reference compound], the IC50 in data set [1] was 0.38 ± 0.2 µM; in [2], 0.16 ± 0.04 µM; in data set [3], over 50 µM; in data set [5], over 25 µM; in data set [6] (setting [18]), 0.2 ± 0.11 µM; in data set [7] (setting [19]), over 25 µM. Also, the IC50 in data set [8] was 3.12 µM; in data set [9], 0.58 ± 0.03 µM; in data set [10] (72 h, MTS, n = 2), over 25 µM; in [11], 0.38 ± 0.17 µM; in data set [12] (setting [20]) it was 0.08 ± 0.02 µM; in data set [13] (setting [21]), over 50 µM. In data set [4] (setting [17]), this compound displayed an IC50 at 72 h of 11.1 µM.
Compound `N#Cc1ccc2nc(-c3ccc(-c4ccc(Cl)cc4)o3)sc2c1` [Compound 7, 2-[5-(4-Chlorophenyl)furan-2-yl]-6-cyanobenzothiazole] displayed a melting point of 235 to 237 °C. For the same compound, the IC50 in [1] is over 100 µM. In addition, the IC50 in data set [2] was over 100 µM. Further, in [3], the IC50 is over 100 µM. Moreover, the IC50 at 72 h in [4] (setting [17]) was over 50 µM. The MIC in data set [14] (ATCC7752, broth microdilution, 16–24h at 37 °C, read-out: MIC S. cerevisiae ATCC 7752) was over 100 µM. Besides, in data set [15] (ATCC29213, broth microdilution, 16–24h at 37 °C, read-out: MIC S. aureus ATCC 29213), the minimal inhibitory concentration (MIC) was over 100 µM. For the same compound, the MIC in data set [16] (ATCC25922, broth microdilution, 16–24h at 37 °C, read-out: MIC E. coli ATCC 25922) was over 100 µM. Besides, in data set [5], the IC50 is over 50 µM. Further, the IC50 in [6] (setting [22]) was over 50 µM. Besides, in data set [7] (setting [19]), the IC50 is over 50 µM. Further, the IC50 in [8] is over 50 µM. The IC50 in data set [9] was over 50 µM. Moreover, the IC50 in [10] (72 h, MTS, n = 2) is over 50 µM. The IC50 in data set [11] was over 100 µM. Besides, in data set [12] (setting [23]), the IC50 was over 100 µM. The IC50 in [13] (setting [21]) was over 100 µM.
For `N#C/C(=C\c1ccc(-c2ccc(Cl)cc2)o1)c1nc2ccccc2s1` [Compound 22, (E)-2-(Benzothiazol-2-yl)-3-[5-(4-chlorophenyl)furan-2-yl]acrylonitrile], the IC50 is over 100 µM in data set [1]; over 100 µM in [2]; over 100 µM in data set [3]; over 50 µM in data set [5]; over 50 µM in [6] (setting [18]); over 50 µM in data set [7] (setting [24]). For the same compound, the IC50 in data set [8] was over 50 µM; in data set [9] it was over 50 µM; in [10] it was over 50 µM; in data set [11], over 100 µM; in [12] (setting [20]), over 100 µM; in data set [13] (setting [25]) it was over 100 µM. Besides, in data set [4], the IC50 at 72 h was over 50 µM. Moreover, the minimum inhibitory concentration (MIC) was over 100 µM in data set [14] (ATCC7752, read-out: MIC S. cerevisiae ATCC 7752); over 100 µM in data set [15] (ATCC29213, read-out: MIC S. aureus ATCC 29213); over 100 µM in data set [16] (ATCC25922, read-out: MIC E. coli ATCC 25922).
Regarding `CN[C@@H]1C[C@H]2O[C@@](C)([C@@H]1OC)n1c3ccccc3c3c4c(c5c6ccccc6n2c5c31)C(=O)NC4` [Staurosporine, reference compound], in [4], the IC50 at 72 h is 0.031 ± 0.011 µM. Also, the IC50 in data set [6] (setting [18]) was determined as 0.004 ± 0.002 µM; in data set [7] (setting [24]), 0.035 ± 0.017 µM; in data set [9] it was 0.033 ± 0.002 µM; in [13] (setting [25]), 0.11 ± 0.001 µM.
`COc1cccc2c1C(=O)c1c(O)c3c(c(O)c1C2=O)C[C@@](O)(C(=O)CO)C[C@@H]3O[C@H]1C[C@H](N)[C@H](O)[C@H](C)O1` [Doxorubicin, reference compound]: the IC50 in data set [1] is 0.99 ± 0.15 µM; in data set [2], 1.47 ± 0.12 µM; in data set [3], 5.86 ± 1.1 µM; in [5] it was 0.07 ± 0.04 µM; in [6] (setting [22]), 0.25 ± 0.28 µM; in [7] (setting [19]) it was 0.13 ± 0.01 µM. Moreover, the IC50 in [8] turned out to be 0.15 ± 0.06 µM; in [9], 0.32 ± 0.03 µM; in [10] (72 h, MTS, n = 2), 1.31 ± 0.11 µM; in [11] it was 2.3 ± 1.91 µM; in [12] (setting [23]), 1.89 ± 2.3 µM; in data set [13] (setting [21]) it was 0.48 ± 0.03 µM. In [4], the IC50 at 72 h amounted to 0.6 ± 0.01 µM.

Broadly, the MIC is the least concentration at which growth counts as inhibited. Usually melting point stands for the temperature, or range, at which the solid turns liquid.
